Measured values published in patent publication US6673812B1, “Preventives/remedies for glaucoma” (Senju Pharmaceutical Co., Ltd., priority 1998, dated 2004).

Assays:
Japanese white rabbits [1] = assay: Effect on normal intraocular pressure of white rabbits; assay type: in vivo, rabbit; conditions: 20 μl eye drop, 0.1% or 0.03%
From the text: In this experiment, 0.1% eye drop and 0.03% eye drop containing Compound A (each prepared in Example 2 and Example 3), 0.03% eye drop containing Compound B (prepared in Example 4), 0.1% eye drop and 0.03% eye drop containing Compound C (each prepared in Example 5 and Example 6) and 0.03% eye drop containing Compound D (prepared in Example 7) were used.
Japanese white rabbits (body weight about 2 kg) purchased from Japan Laboratory Animals, INC. were used. These animals were bred in a breeding chamber set to temperature 23±3° C., humidity 55±10% and fed on limited amount of 100 g a day of a solid feed (Labo R Stock, Nihon-Nosan Kogyo K.K.). They were allowed free access to tap water. The rabbits were placed in a holding box for 5 hr a day for acclimation from 2 days prior to the test. […] After measurement of the initial value of the intraocular pressure, various eye drops (20 μl) were instilled into one eye, and a base, which was one of various eye drops except the test drug, was instilled into the other eye in the same manner and taken as the control eye.
The intraocular pressure was measured with time at 30, 60, 90, 120, 150 and 180 min after instillation and thereafter at one hour intervals until the intraocular pressure returned to the initial value, and the duration of the effect was examined.

[2] = tested on: extracted ciliary muscle of white rabbit; assay: Effect on carbachol contraction of extracted ciliary muscle of white rabbit (Magnus bath); assay type: cell-based
Experimental: Male Japanese white rabbits (body weight about 2 kg) were euthanized by intravenous administration of an excess pentobarbital sodium. The eyeball was enucleated immediately thereafter and preserved in a Krebs solution (NaCl:112 mM, KC1:5.9 mM, CaCl2 2H2O:2.0 mM, MgCl2 6H2O:1.2 mM, NaH2PO4 2H2O:1.2 mM, NaHCO3:25 mM, Glucose:11.5 mM). The ciliary body separated from the eyeball was hung in a Magnus bath filled with the Krebs solution and equilibrated under a 20-30 mg resting tension. The changes in the tension of the preparation was measured with a transducer and recorded on a pen recorder via an amplifier. As the contraction drug, carbachol was used, and the inhibitory action on the dose dependent response of phasic contraction was studied. The test drug was (+)-trans-4-(1-aminoethyl)-1-(4-pyridylcarbamoyl)cyclohexane 2HCl 1H2O (Compound A), which was added to the Magnus bath 5 min before addition of carbachol.

Japanese white rabbits [3] = assay: Effect on blood flow of normal optic disc of white rabbits; assay type: in vivo, rabbit; conditions: 0.1% eye drop
Experimental: In this experiment, 0.1% eye drop containing Compound A (prepared in Example 2) and 0.1% eye drop containing Compound C (prepared in Example 5) were used.
Japanese white rabbits (body weight about 2 kg) purchased from Japan Laboratory Animals, INC. were used. These animals were bred in a breeding chamber set to temperature 23±3° C., humidity 55±10% and fed on limited amount of 100 g a day of a solid feed (Labo R Stock, Nihon-Nosan Kogyo K.K.). They were allowed free access to tap water. In the same manner as in Example 4, each test drug was administered. Using laser speckle microcirculation analyzer, the blood flow of optic disc was measured at 30, 60, 90, 120, 150 and 180 min after instillation and thereafter at one hour intervals till 300 min after the instillation.

## CC(N)[C@H]1CC[C@H](C(=O)Nc2ccncc2)CC1.Cl.Cl.O (single isomer, unassigned; (+)) [Compound A, (+)-trans-4-(1-Aminoethyl)-1-(4-pyridylcarbamoyl)cyclohexane 2HCl 1H2O]
Japanese white rabbits [1]
  character (onset, duration) of intraocular pressure lowering effect: intraocular pressure lowering effect in early stages after instillation
[2]; 10^−6-3×10^−4 M carbachol
  type of antagonism against carbachol contraction: non-competitive antagonism
[2]; ciliary muscle, added 5 min before carbachol, read-out: IC50 against carbachol contraction
  IC50: 2.8 µM
Japanese white rabbits [3]
  duration of optic disc blood flow increasing effect: more long-lasting
